Biological target: T1, human TLR8 (hTLR8) (Homo sapiens, UniProt Q9NR97)
T1 construct: expressed in transfected cells
T1 sequence (Q9NR97 27-1041): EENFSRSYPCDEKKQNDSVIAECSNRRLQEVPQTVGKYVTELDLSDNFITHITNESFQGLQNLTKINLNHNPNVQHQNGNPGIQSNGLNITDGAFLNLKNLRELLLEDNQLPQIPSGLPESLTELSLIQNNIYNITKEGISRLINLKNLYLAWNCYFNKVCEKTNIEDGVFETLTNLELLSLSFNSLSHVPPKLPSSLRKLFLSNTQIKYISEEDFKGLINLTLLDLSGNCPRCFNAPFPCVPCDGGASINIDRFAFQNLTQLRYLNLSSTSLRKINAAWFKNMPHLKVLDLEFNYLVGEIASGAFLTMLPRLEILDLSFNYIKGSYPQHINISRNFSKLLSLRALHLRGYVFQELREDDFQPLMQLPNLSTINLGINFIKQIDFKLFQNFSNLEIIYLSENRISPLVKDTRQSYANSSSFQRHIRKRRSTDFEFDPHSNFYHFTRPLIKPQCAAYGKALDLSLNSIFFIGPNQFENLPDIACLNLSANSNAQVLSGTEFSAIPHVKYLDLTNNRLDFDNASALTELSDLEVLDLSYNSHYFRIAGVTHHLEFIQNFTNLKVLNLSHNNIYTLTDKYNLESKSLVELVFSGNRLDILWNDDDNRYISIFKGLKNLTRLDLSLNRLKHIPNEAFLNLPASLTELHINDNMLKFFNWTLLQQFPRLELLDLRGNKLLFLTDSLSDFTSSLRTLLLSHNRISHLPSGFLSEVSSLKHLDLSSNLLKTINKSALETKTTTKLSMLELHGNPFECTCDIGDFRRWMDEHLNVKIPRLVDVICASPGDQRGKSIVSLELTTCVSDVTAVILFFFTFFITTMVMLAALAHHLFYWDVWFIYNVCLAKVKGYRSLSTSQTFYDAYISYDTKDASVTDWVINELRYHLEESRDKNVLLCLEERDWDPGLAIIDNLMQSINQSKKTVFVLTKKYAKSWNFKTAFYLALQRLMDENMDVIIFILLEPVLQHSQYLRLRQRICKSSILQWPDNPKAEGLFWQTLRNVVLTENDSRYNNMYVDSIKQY
Assay: Antagonist screen, hTLR8-NFκB-293 cells, NF-κB-luciferase reporter, with EC50 of R848
Assay type: cell-based
Conditions: compound at 0.5, 5, 50 μg/ml; EC50 concentration of R848; 16 h; NF-κB-luciferase
Experimental: The method is described in greater detail as follows. The cells for each individual cell clone (hTLR3-NFκB-293, hTLR7-NFκB-293, hTLR8-NFκB-293 and hTLR9-NFκB-293) were counted and seeded one day before the stimulation at 1.5×10^4 cells per well in 96-well cell culture plates. To become adherent the cells were incubated after seeding overnight at 37° C. in 5% CO2 humidified air.
The screen for each compound was performed at the same time for all of the receptors TLR3, TLR7, TLR8 and TLR9. Up to fifteen test compounds, each assayed in duplicate at each of three different final concentrations (0.5 μg/ml, 5 μg/ml, and 50 μg/ml), were used for 16 h cell stimulation on a single multiwell culture plate. A 4× final concentration master plate was created to prepare the different test compounds before they were added to the cells.
Controls were added as duplicates individually for each cell clone on the cell culture plate. Positive controls were used as follows (final concentrations): 50 μg/ml poly(I:C) for hTLR3-NFκB-293; 8 μM resiquimod (R848) for hTLR7-NFκB-293; 30 μM R848 for hTLR8-NFκB-293; and 2.5 μM CpG-ODN 2006 for hTLR9-NFκB-293. Media alone was used as negative control. After addition of controls and small molecules, the cell clones were additionally stimulated with the EC50 concentration of the appropriate receptor-specific ligand.
The mean value of wells H2 and H5 (each with cells and EC50 concentration of the appropriate receptor-specific ligand) divided by the mean of wells H3 and H6 (each with cells alone) yielded the baseline response (i.e., fold induction of luciferase activity) to EC50 concentration of the appropriate receptor-specific ligand.
After 16 h stimulation the supernatant was removed and the cells treated with lysis buffer and stored at −80° C. before measuring.
For each screen result a graphical documentation was performed.
The baseline result (measured with addition of the EC50 concentration of the receptor-specific ligand) for each cell culture plate was measured as described above. Antagonistic effects were measured by down regulation compared to the baseline. Antagonists were scored as follows: • 13: compounds for which there was clear down regulation at 0.5 μg/ml, 5 μg/ml, and 50 μg/ml; • 12: compounds for which there was clear down regulation at 5 μg/ml and 50 μg/ml; • 11: compounds for which there was clear down regulation only at 50 μg/ml; • —: compounds for which there was no clear down regulation even at 50 μg/ml. Agonists
Results were expressed as fold induction over baseline luciferase activity measured in the absence of R848. […] Additional screening was performed in like manner using additional small molecules selected from another library or specifically prepared for this purpose. Scoring is reported as above but as applied to TLR8.

CC1NCCc2c1[nH]c1ccccc21.Cl (racemic) [compound 619, Eleagnine hydrochloride (R,S)]
hTLR8 (inhibitory effect, antagonist score): — (compounds for which there was no clear down regulation even at 50 μg/ml)

O=C1c2c(O)cccc2Cc2cccc(O)c21 [compound 43, Anthralin]
hTLR8 (inhibitory effect, antagonist score): 12 (compounds for which there was clear down regulation at 5 μg/ml and 50 μg/ml)

CN(C)CCCN1c2ccccc2Sc2ccc(C(F)(F)F)cc21.Cl [compound 53, Triflupromazinehydrochloride]
hTLR8 (inhibitory effect, antagonist score): 11 (compounds for which there was clear down regulation only at 50 μg/ml)

CN(C)CCCN1c2ccccc2Sc2ccc(Cl)cc21.Cl [compound 64, Chlorpromazinehydrochloride]
hTLR8 (inhibitory effect, antagonist score): 11 (compounds for which there was clear down regulation only at 50 μg/ml)

CN(C)CCC=C1c2ccccc2CCc2ccccc21.Cl [compound 74, Amitryptilinehydrochloride]
hTLR8 (inhibitory effect, antagonist score): — (compounds for which there was no clear down regulation even at 50 μg/ml)

OC(c1ccccc1)(c1ccccc1)C1CCNCC1 [compound 93, Azacyclonol]
hTLR8 (inhibitory effect, antagonist score): — (compounds for which there was no clear down regulation even at 50 μg/ml)

CN1Cc2c(N)cccc2C(c2ccccc2)C1.O=C(O)/C=C\C(=O)O (centres unmarked) [compound 108, Nomifensine maleate]
hTLR8 (inhibitory effect, antagonist score): — (compounds for which there was no clear down regulation even at 50 μg/ml)

C[C@]12N[C@H](Cc3ccccc31)c1ccccc12.O=C(O)/C=C\C(=O)O [compound 109, Dizocilpine maleate]
hTLR8 (inhibitory effect, antagonist score): — (compounds for which there was no clear down regulation even at 50 μg/ml)

OCCN1CCN(CCCN2c3ccccc3Sc3ccc(Cl)cc32)CC1 [compound 125, Perphenazine]
hTLR8 (inhibitory effect, antagonist score): 11 (compounds for which there was clear down regulation only at 50 μg/ml)

CN1CCN(CCCN2c3ccccc3Sc3ccc(S(=O)(=O)N(C)C)cc32)CC1.CS(=O)(=O)O.CS(=O)(=O)O [compound 149, Thioproperasinedimesylate]
hTLR8 (inhibitory effect, antagonist score): — (compounds for which there was no clear down regulation even at 50 μg/ml)

Clc1ccccc1C(c1ccccc1)(c1ccccc1)n1ccnc1 [compound 267, Clotrimazole]
hTLR8 (inhibitory effect, antagonist score): 12 (compounds for which there was clear down regulation at 5 μg/ml and 50 μg/ml)

CC(NCCC(c1ccccc1)c1ccccc1)c1ccccc1.Cl (centres unmarked) [compound 270, Fendiline hydrochloride]
hTLR8 (inhibitory effect, antagonist score): 12 (compounds for which there was clear down regulation at 5 μg/ml and 50 μg/ml)

CN1CCC(=C2c3ccccc3Sc3ccccc32)CC1.O=C(O)/C=C\C(=O)O [compound 294, Pimethixene maleate]
hTLR8 (inhibitory effect, antagonist score): 11 (compounds for which there was clear down regulation only at 50 μg/ml)

O=c1[nH]c2ccccc2n1C1CCN(CCCC(c2ccc(F)cc2)c2ccc(F)cc2)CC1 [compound 308, Pimozide]
hTLR8 (inhibitory effect, antagonist score): 11 (compounds for which there was clear down regulation only at 50 μg/ml)

Cl.Cl.OCCN1CCN(CC/C=C2/c3ccccc3Sc3ccc(C(F)(F)F)cc32)CC1 [compound 340, Flupentixoldihydrochloride cis-(Z)]
hTLR8 (inhibitory effect, antagonist score): 11 (compounds for which there was clear down regulation only at 50 μg/ml)

CNCCCN1c2ccccc2CCc2ccccc21.Cl [compound 343, Desipraminehydrochloride]
hTLR8 (inhibitory effect, antagonist score): 11 (compounds for which there was clear down regulation only at 50 μg/ml)

CN(C)CC/C=C1/c2ccccc2Sc2ccc(Cl)cc21.Cl [compound 348, Chlorprothixenehydrochloride]
hTLR8 (inhibitory effect, antagonist score): 11 (compounds for which there was clear down regulation only at 50 μg/ml)

Cc1cccc(C)c1NC(=O)CN1CCN(CCCC(c2ccc(F)cc2)c2ccc(F)cc2)CC1 [compound 381, Lidoflazine]
hTLR8 (inhibitory effect, antagonist score): 11 (compounds for which there was clear down regulation only at 50 μg/ml)

Cl.Cl.Fc1ccc(C(OCCN2CCN(CCCc3ccccc3)CC2)c2ccc(F)cc2)cc1 [compound 386, GBR 12909hydrochloride]
hTLR8 (inhibitory effect, antagonist score): 12 (compounds for which there was clear down regulation at 5 μg/ml and 50 μg/ml)

Nc1cccc2c1C(=O)c1cccc(N)c1C2=O [compound 413, Anthraquinone,1,5-diamino]
hTLR8 (inhibitory effect, antagonist score): 11 (compounds for which there was clear down regulation only at 50 μg/ml)

CN1CCC2C(C1)c1ccccc1N2Cc1ccccc1 (centres unmarked) [compound 455, Mebhydroline 1,5 naphtalenedisulfonate]
hTLR8 (inhibitory effect, antagonist score): — (compounds for which there was no clear down regulation even at 50 μg/ml)

Cc1cccc(CN2CCN(C(c3ccccc3)c3ccc(Cl)cc3)CC2)c1.Cl.Cl (centres unmarked) [compound 457, Meclozinedihydrochioride]
hTLR8 (inhibitory effect, antagonist score): — (compounds for which there was no clear down regulation even at 50 μg/ml)

c1ccc2c(c1)[nH]c1cnccc12 [compound 470, norharman]
hTLR8 (inhibitory effect, antagonist score): 11 (compounds for which there was clear down regulation only at 50 μg/ml)

CN(C)CC/C=C1/c2ccccc2CSc2ccccc21.Cl [compound 488, Dosulepin hydrochloride]
hTLR8 (inhibitory effect, antagonist score): — (compounds for which there was no clear down regulation even at 50 μg/ml)

CN1CCN(C(c2ccccc2)c2ccccc2)CC1.Cl [compound 510, Cyclizine hydrochloride]
hTLR8 (inhibitory effect, antagonist score): — (compounds for which there was no clear down regulation even at 50 μg/ml)

CN1CCCCC1CCN1c2ccccc2Sc2ccc([S+](C)[O-])cc21.O=S(=O)(O)c1ccccc1 (centres unmarked) [compound 529, Mesoridazine besylate]
hTLR8 (inhibitory effect, antagonist score): — (compounds for which there was no clear down regulation even at 50 μg/ml)

CCOC(=O)Oc1c(OC)cc(C(=O)O[C@@H]2C[C@@H]3CN4CCc5c([nH]c6cc(OC)ccc56)[C@H]4C[C@@H]3[C@H](C(=O)OC)[C@H]2OC)cc1OC [compound 564, Syrosingopine]
hTLR8 (inhibitory effect, antagonist score): 12 (compounds for which there was clear down regulation at 5 μg/ml and 50 μg/ml)

COC(=O)[C@H]1[C@H]2C[C@@H]3c4[nH]c5cc(OC)ccc5c4CCN3C[C@H]2C[C@@H](OC(=O)/C=C/c2cc(OC)c(OC)c(OC)c2)[C@@H]1OC [compound 568, Rescinnamin]
hTLR8 (inhibitory effect, antagonist score): — (compounds for which there was no clear down regulation even at 50 μg/ml)

CC(=O)c1ccc2c(c1)N(CCCN(C)C)c1ccccc1S2.O=C(O)/C=C\C(=O)O [compound 576, Acetopromazinemaleate salt]
hTLR8 (inhibitory effect, antagonist score): — (compounds for which there was no clear down regulation even at 50 μg/ml)
